Data: US8067424B2, “Selective inhibitors for cyclin-dependent kinases” (Emory University, priority 2007, dated 2011)
Read-outs that look alike come from different tables or passages of the source.

Assays:
BTK = BTK (Homo sapiens, UniProt Q06187); test: Kinase screen: BTK assay; type: biochemical; conditions: 10 micromolar compound; for remaining activity at 10 µM: read-out: mean activity remaining (as a percentage of the original activity), BTK
Protocol: (§1) Generally, the same procedure was used for all assays. Since the total assay volume was 25.5 microliters, 0.5 microliters of inhibitors at 51× assay concentration were added to the plates before any other addition.
(§2) The basic procedure was to add 0.5 microliters inhibitor/control in DMSO to plate. Fifteen microliters of enzyme/substrate/buffer mix were added and incubated for 5 min. Ten microliters MgATP at the relevant concentration were added and incubated for 30 min. The assay was stopped by adding 5 microliters of 3% orthophosphoric acid. The assay was transferred to a p81 filter plate and read in a scintillation counter of 30 sec/well. Note that this assay procedure was not followed for MKK1, which instead involved a two-step assay, and PKC alpha, which required the addition of lipid vesicles.
(50-1000 cpm/pmole) and incubated for 30 min at room temperature. Assays were stopped by addition of 5 μl of 0.5 M (3%) orthophosphoric acid and then harvested onto P81 Unifilter plates with a wash buffer of 50 mM orthophosphoric acid.

MCF-7 cell line = test: cells; type: cell-based; conditions: Homo sapiens; for IC (total growth inhibition): read-out: TGI
EPH-B3 = target: T1, EPH-B3 (Homo sapiens, UniProt P54753); test: Kinase screen: EPH-B3 assay; type: biochemical; conditions: 10 micromolar compound; for remaining activity at 10 µM: read-out: mean activity remaining (as a percentage of the original activity), EPH-B3
T1 sequence (P54753 34-998): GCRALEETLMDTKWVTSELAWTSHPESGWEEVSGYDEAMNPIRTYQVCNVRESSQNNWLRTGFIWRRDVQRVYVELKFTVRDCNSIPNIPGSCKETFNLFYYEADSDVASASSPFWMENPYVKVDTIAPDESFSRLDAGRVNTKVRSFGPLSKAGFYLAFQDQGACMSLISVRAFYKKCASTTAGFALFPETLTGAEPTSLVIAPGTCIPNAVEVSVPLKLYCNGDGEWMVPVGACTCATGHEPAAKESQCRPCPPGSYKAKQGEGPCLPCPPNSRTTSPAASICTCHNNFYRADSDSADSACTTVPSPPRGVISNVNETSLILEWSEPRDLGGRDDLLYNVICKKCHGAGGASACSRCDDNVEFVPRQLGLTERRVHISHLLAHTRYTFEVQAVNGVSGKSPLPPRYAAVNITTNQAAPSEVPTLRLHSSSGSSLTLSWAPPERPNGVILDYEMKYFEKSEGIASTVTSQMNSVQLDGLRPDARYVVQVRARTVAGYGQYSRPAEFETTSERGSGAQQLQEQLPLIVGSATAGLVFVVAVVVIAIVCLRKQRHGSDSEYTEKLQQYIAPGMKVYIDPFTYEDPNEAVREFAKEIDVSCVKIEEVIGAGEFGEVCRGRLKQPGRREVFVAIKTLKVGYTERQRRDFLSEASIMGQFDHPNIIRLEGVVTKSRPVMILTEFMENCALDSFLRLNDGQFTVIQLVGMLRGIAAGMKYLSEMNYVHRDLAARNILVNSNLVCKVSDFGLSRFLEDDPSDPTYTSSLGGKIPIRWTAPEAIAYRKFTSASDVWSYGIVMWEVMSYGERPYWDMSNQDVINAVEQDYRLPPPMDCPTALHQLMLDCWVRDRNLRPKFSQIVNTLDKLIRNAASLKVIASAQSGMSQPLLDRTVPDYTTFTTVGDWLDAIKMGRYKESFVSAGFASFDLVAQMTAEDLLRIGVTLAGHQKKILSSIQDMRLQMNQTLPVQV
Protocol: as §1, §2
EPH-B3 assay: EPH-B3 (5-20 mU diluted in 50 mM Tris pH 7.5, 0.1 mM EGTA, 1 mg/ml BSA) was assayed against a substrate peptide (Poly Glut Tyr) in a final volume of 25.5 μl containing 50 mM Tris pH 7.5, 1 mg/ml substrate peptide, 10 mM magnesium acetate and 0.005 mM [33P-g-ATP] (50-1000 cpm/pmole) and incubated for 30 min at room temperature. Assays were stopped by addition of 5 μl of 0.5 M (3%) orthophosphoric acid and then harvested onto P81 Unifilter plates with a wash buffer of 50 mM orthophosphoric acid.

[1] = MCF7, 24 h, MCF-7, SRB assay, 24 hours
[2] = MCF7, MCF-7, SRB assay, 24 hours, mean of three experiments, read-out: IC50

BTK, sequence (Q06187 whole entry, species assumed): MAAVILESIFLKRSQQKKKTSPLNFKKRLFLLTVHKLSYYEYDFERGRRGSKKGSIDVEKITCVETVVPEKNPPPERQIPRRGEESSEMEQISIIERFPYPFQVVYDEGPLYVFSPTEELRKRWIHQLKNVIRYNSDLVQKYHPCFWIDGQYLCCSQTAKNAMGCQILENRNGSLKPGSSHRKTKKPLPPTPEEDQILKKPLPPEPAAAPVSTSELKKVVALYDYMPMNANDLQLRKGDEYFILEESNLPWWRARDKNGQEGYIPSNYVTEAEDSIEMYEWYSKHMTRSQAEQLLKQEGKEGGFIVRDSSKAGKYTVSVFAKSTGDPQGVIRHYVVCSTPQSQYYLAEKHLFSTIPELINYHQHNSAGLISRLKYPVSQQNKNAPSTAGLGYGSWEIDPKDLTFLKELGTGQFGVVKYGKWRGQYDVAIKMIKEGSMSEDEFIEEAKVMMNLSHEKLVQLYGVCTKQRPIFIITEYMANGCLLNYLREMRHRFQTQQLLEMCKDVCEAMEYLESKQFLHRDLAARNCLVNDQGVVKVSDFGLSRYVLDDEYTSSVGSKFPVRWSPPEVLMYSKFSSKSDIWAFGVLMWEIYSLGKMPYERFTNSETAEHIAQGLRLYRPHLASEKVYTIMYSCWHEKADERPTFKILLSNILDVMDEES

Compound | remaining activity at 10 µM (BTK) | LC50 (concentration causing 50% net cell kill) (MCF-7 cell line; [1]) | IC (total growth inhibition) (MCF-7 cell line; [1]) | IC50 (MCF-7 cell line; [2]) | remaining activity at 10 µM (EPH-B3) | IC50 (MCF-7 cell line; MCF7, 24 h) | mean activity remaining (as a percentage of the original activity), BTK (BTK) | mean activity remaining (as a percentage of the original activity), EPH-B3 (EPH-B3)
C=C[C@H](CO)Nc1cc(NCc2ccccc2)n2ncc(C(C)C)c2n1 [ICEC0065] | 94% | 8.5 µM | 12 µM | > 100 µM | 83% | – | – | –
CC[C@H](CO)Nc1cc(NCc2ccccc2)n2ncc(C(C)C)c2n1 [ICEC0067] | 84% | – | 13 µM | > 100 µM | 79% | – | – | –
CC(C)c1cnn2c(NCc3ccccc3)cc(N[C@@H](CO)[C@H](O)CO)nc12 [ICEC0318, (3S)-3-(7-(Benzylamino)-3-isopropylpyrazolo[1,5-a]pyrimidin-5-ylamino)butane-1,2,4-triol] | 91% | – | < 2 µM | – | 72% | < 2 µM | – | –
CC(C)c1cnn2c(NCc3ccccc3F)cc(NCCCCCN)nc12 [ICEC-0232] | – | – | – | – | – | – | 90% | 88%
